Values of other authors, collected in patent publication US10183022B2, “Pharmaceutical composition for treating ulcerative colitis” (EA Pharma Co., Ltd., priority 2014, dated 2019).

Tested on: administered patients
Conditions: among the administered patients, intravenous infusion; cited from earlier work

Infliximab: anti-TNFα antibody, given by intravenous infusion
Patients showing the loss of the response: ≤ 70%
